In article PMC3516806 (Scientific Reports, 2012):

Molecular target: BoGT6a (Bacteroides ovatus, UniProt A0ABU3IMV7)
Assay: ITC, […]°C, HEPES pH […], no metal
Format: binding

Kd: 59 µM
Compound: CC(=O)N[C@H]1[C@@H](OP(=O)(O)OP(=O)(O)OC[C@H]2O[C@@H](n3ccc(=O)[nH]c3=O)[C@H](O)[C@@H]2O)O[C@H](CO)[C@H](O)[C@@H]1O [UDP-GalNAc]
